For 1 molecule, inhibition results are on record in article PMC6934184, “Selective DNA-PKcs inhibition extends the therapeutic index of localized radiotherapy and chemotherapy” (The Journal of Clinical Investigation, 2019).

The term inhibition denotes the change of the read-out against control, counted positive when it falls.

The experiment addresses T1, MAPK12 (p38 gamma) (Homo sapiens, UniProt P53778).
T1 construct: purchased Thermo Fisher Scientific (Life Technologies) SelectScreen
Briefly: SelectScreen Z'LYTE. Format: biochemical. A digest of the protocol: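 NU5455 was profiled across the SelectScreen Broad panel of kinase activity and binding assays. Z'LYTE reactions such as CSF1R ran at apparent Km ATP, while the Adapta CAMK1 assay used ATP listed as 10. Values are given as percent.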

T1 sequence (P53778 whole entry): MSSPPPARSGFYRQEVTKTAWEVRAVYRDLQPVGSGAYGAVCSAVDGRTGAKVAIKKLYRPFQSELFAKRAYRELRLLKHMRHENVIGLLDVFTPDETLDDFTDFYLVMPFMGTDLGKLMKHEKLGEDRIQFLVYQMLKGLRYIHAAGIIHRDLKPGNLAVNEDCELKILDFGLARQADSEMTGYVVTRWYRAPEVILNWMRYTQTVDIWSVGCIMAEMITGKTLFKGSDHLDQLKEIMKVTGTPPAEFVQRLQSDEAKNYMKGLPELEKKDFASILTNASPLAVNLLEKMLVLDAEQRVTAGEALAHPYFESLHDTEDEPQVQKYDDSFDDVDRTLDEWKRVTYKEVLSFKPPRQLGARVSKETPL

In the case of `CN(C(=O)CN1CCOCC1)c1ccc2sc3c(-c4cccc5c(=O)cc(N6CC7CCC(C6)O7)oc45)cccc3c2c1` [NU5455], the inhibition at 1 µM was -0.8%.
